Data: US8168651B2, “Protein kinase modulators” (Cylene Pharmaceuticals, Inc., priority 2008, dated 2012)
Like-named read-outs stand apart in the source and are kept apart here.

How the values were obtained:
recombinant human PIM1 = recombinant human PIM1 (Homo sapiens (Human), UniProt P11309); assay: PIM-1 kinase activity in cell-free in vitro assay; type: biochemical; details: for inhibition at 0.5 µM: 500 nM compound, read-out: PIM-1: % inh 500 nM
[1] = test system: HCT-116 human colorectal carcinoma cells; assay: Cell-proliferation assay using Alamar Blue dye; type: cell-based; details: Homo sapiens, HCT-116, HCT-116, second HCT-116 column (c8); read-out: HCT-116 (uM), cell proliferation modulatory activity;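 further: cells exposed to compound for about 4 days, then Alamar Blue added and dye fluorescence read after about 4 h, compared with medium-only control wells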

recombinant human PIM1, sequence (P11309 whole entry): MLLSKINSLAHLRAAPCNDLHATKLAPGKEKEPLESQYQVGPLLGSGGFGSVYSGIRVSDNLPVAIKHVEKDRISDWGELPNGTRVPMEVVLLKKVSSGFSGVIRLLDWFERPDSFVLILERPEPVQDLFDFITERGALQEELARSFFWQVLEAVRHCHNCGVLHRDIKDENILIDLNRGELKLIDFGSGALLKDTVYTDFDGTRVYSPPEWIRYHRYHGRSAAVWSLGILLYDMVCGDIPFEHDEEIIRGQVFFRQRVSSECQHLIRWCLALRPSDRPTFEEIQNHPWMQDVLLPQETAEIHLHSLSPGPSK

inhibition at 0.5 µM (recombinant human PIM1; cell-free assay)	IC50 [1]	IC50 (recombinant human PIM1; Table 45)	SMILES	also measured
-10%	2.63 µM	–	CN1CCCN(c2nc3cc(C#N)ccc3c3sccc23)CC1	–
-23.8%	> 10 µM	–	N#Cc1ccc2c(c1)nc(NCCN1CCOCC1)c1ccsc12	–
-17.6%	9.38 µM	–	N#Cc1ccc2c(c1)nc(N1CCN(CCO)CC1)c1ccsc12	–
-2.91%	> 10 µM	–	N#Cc1ccc2c(c1)nc(NCCO)c1ccsc12	–
-16.5%	3.86 µM	–	CN(C)C1CCN(c2nc3cc(C#N)ccc3c3sccc23)C1 (stereo not drawn)	–
-22.4%	2.2 µM	–	N#Cc1ccc2c(c1)nc(NCCN1CCCC1)c1ccsc12	–
40.1%	> 10 µM	–	CN1CCN(c2nc3cc(C(=O)O)ccc3c3cnccc23)CC1	–
-23.1%	> 10 µM	–	Cc1cnc(CNC(=O)c2ccc3c(c2)nc(N2CCN(C)CC2)c2ccncc23)cn1	–
-10.9%	> 10 µM	–	CN1CCN(c2nc3cc(C(=O)NNc4ccccn4)ccc3c3sccc23)CC1	–
-14.1%	> 10 µM	–	CN1CCN(c2nc3cc(C(=O)NCc4ccncc4)ccc3c3sccc23)CC1	–
-16%	> 10 µM	–	CN1CCN(c2nc3cc(C(=O)NCc4cccnc4)ccc3c3sccc23)CC1	–
-3.62%	> 10 µM	–	CC(C)OCCNC(=O)c1ccc2c(c1)nc(N1CCN(C)CC1)c1ccsc12	–
11%	> 10 µM	–	CN1CCN(c2nc3cc(C(=O)NCC4CCCO4)ccc3c3sccc23)CC1 (stereo not drawn)	–
-12.7%	> 10 µM	–	CN1CCN(c2nc3cc(C(=O)NC4CC4)ccc3c3sccc23)CC1	–
-0.965%	> 10 µM	–	CONC(=O)c1ccc2c(c1)nc(N1CCN(C)CC1)c1ccsc12	–
-14.5%	> 10 µM	–	CN1CCN(c2nc3cc(C(=O)NCc4nccn4C)ccc3c3sccc23)CC1	–
-22.5%	> 10 µM	–	CN1CCN(c2nc3cc(C(=O)NCc4cncn4C)ccc3c3sccc23)CC1	–
58.3%	> 10 µM	–	Cn1nc(-c2ccccc2)cc1Nc1nc2cc(C(=O)O)ccc2c2cnccc12	IC50 (recombinant human PIM1; cell-free assay): 914 nM
12.5%	> 10 µM	–	COC(=O)c1ccc2c(c1)nc(Nc1ccccc1C)c1nc(SC)ncc12	–
-2.36%	–	–	O=C(O)c1ccc2c(c1)nc(N1CCN(c3cnccn3)CC1)c1ccncc12	–
73.6%	> 10 µM	–	CC(=O)Nc1cccc(Nc2nc3cc(C(=O)O)ccc3c3cnccc23)c1	IC50 (recombinant human PIM1; cell-free assay): 369 nM
83.4%	> 10 µM	–	NS(=O)(=O)c1cccc(Nc2nc3cc(C(=O)O)ccc3c3cnccc23)c1	IC50 (recombinant human PIM1; cell-free assay): 397 nM
–	–	< 500 nM	COCCOc1cccc(Nc2nc3c(C(N)=O)cccc3c3cnccc23)c1	–

inhibition at 0.5 µM (recombinant human PIM1; cell-free assay)	IC50 [1]	IC50 (recombinant human PIM1; Table 45)	SMILES	also measured
–	–	< 1000 nM	OCc1cccc2c1nc(Nc1cccc(Cl)c1)c1ccncc12	–
–	–	> 1100 nM	O=C(O)c1cccc2c1nc(Nc1cccc(Cl)c1)c1cnccc12	–
–	–	> 1100 nM	CN(C)CCNC(=O)c1cccc2c1nc(Nc1cccc(Cl)c1)c1ccncc12	–
–	–	> 1100 nM	COCCNC(=O)c1cccc2c1nc(Nc1cccc(Cl)c1)c1ccncc12	–
–	–	> 1100 nM	COC(=O)c1cccc2c1nc(Nc1cccc(Cl)c1)c1ccncc12	–
–	–	> 1100 nM	CN(C)C(=O)c1cccc2c1nc(Nc1cccc(Cl)c1)c1ccncc12	–
–	–	> 1100 nM	O=C(NCc1ccccc1)c1cccc2c1nc(Nc1cccc(Cl)c1)c1ccncc12	–
–	–	> 1100 nM	O=C(c1cccc2c1nc(Nc1cccc(Cl)c1)c1ccncc12)N1CCOCC1	–
–	–	> 1100 nM	O=C(NC1CC1)c1cccc2c1nc(Nc1cccc(Cl)c1)c1ccncc12	–
–	–	> 1100 nM	O=C(Nc1ccccc1)c1cccc2c1nc(Nc1cccc(Cl)c1)c1ccncc12	–
–	–	> 1100 nM	CONC(=O)c1cccc2c1nc(Nc1cccc(Cl)c1)c1ccncc12	–
–	–	< 5000 nM	NNC(=O)c1cccc2c1nc(Nc1cccc(Cl)c1)c1ccncc12	–
–	–	> 1100 nM	Clc1cccc(Nc2nc3c(-c4nnco4)cccc3c3cnccc23)c1	–
–	–	> 1100 nM	N#Cc1cccc2c1nc(Nc1cccc(Cl)c1)c1ccncc12	–
–	–	–	NCc1ccc(Nc2nc3c(-c4nnc[nH]4)cccc3c3cnccc23)c(Cl)c1	IC50 (recombinant human PIM1): < 100 nM
–	–	–	CN1CCN(c2ccc(Nc3nc4c(-c5nnc[nH]5)cccc4c4cnccc34)cc2)CC1	IC50 (recombinant human PIM1): < 500 nM
–	–	–	c1cc(-c2nnc[nH]2)c2nc(N3CCOCC3)c3ccncc3c2c1	IC50 (recombinant human PIM1): 3970 nM
–	–	> 1100 nM	COC(=O)c1cccc2c1nc(Cl)c1ccncc12 [drawing 2270]	–
–	–	> 1100 nM	O=C(O)c1cccc2c1nc(Nc1cccc(Cl)c1)c1ccncc12 [drawing 2271]	–
–	–	> 1100 nM	COC(=O)c1cccc2c1nc(Nc1ccccc1)c1ccncc12 [drawing 2272]	–
–	–	> 1100 nM	O=C(O)c1cccc2c1nc(Nc1ccccc1)c1ccncc12 [drawing 2273]	–
–	–	> 1100 nM	CNC(=O)c1cccc2c1nc(Nc1cccc(Cl)c1)c1ccncc12 [drawing 2277]	–
